{"source": "paper PMC6979384", "about": "“Characterization of the plant homeodomain (PHD) reader family for their histone tail interactions” (Epigenetics & Chromatin, 2020)", "experiment_in_all_cases": "Histone peptide microarray", "type_in_all_cases": "binding, human", "conditions_in_all_cases": "sheet \"Array Heatmap\"", "key": {"RAG2": {"tested_on": "RAG2", "how_it_was_run": "(§1)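 Purified PHD finger domains fused to GST are screened against 293 synthetic histone peptides bearing one or several post-translational modifications. The protein is used at 0.5 μM, and the signal from four replicate arrays is averaged, with standard deviation given.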"}, "CHD5 (PPCC)": {"tested_on": "CHD5 (PPCC)", "how_it_was_run": "as §1"}, "CHD5 (PCC)": {"tested_on": "CHD5 (PCC)", "how_it_was_run": "as §1"}, "CHD4 (PPCC)": {"tested_on": "CHD4 (PPCC)", "how_it_was_run": "as §1"}, "ING4": {"tested_on": "ING4", "how_it_was_run": "as §1"}, "TRIM66 (PB)": {"tested_on": "TRIM66 (PB)", "how_it_was_run": "as §1"}, "ING2": {"tested_on": "ING2", "how_it_was_run": "as §1"}, "DPF2 (PPC2W2)": {"tested_on": "DPF2 (PPC2W2)", "how_it_was_run": "as §1"}, "DIDO1": {"tested_on": "DIDO1", "how_it_was_run": "as §1"}, "PHF21A": {"tested_on": "PHF21A", "how_it_was_run": "as §1"}, "AIRE (PP)": {"tested_on": "AIRE (PP)", "how_it_was_run": "as §1"}, "KDM7A": {"tested_on": "KDM7A", "how_it_was_run": "as §1"}, "MLL5": {"tested_on": "MLL5", "how_it_was_run": "as §1"}, "PHF2": {"tested_on": "PHF2", "how_it_was_run": "as §1"}, "BPTF (PB)": {"tested_on": "BPTF (PB)", "how_it_was_run": "as §1"}, "ING3": {"tested_on": "ING3", "how_it_was_run": "as §1"}, "KDM5A (1)": {"tested_on": "KDM5A (1)", "how_it_was_run": "as §1"}, "PHF8": {"tested_on": "PHF8", "how_it_was_run": "as §1"}, "KDM5A (3)": {"tested_on": "KDM5A (3)", "how_it_was_run": "as §1"}, "MORC3 (CW)": {"tested_on": "MORC3 (CW)", "how_it_was_run": "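A peptide microarray holding 293 synthetic histone peptides with individual or combinatorial modifications was probed with each GST-PHD protein at 0.5 μM. Values represent mean intensity (±SD) from four replicates.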"}, "ING1": {"tested_on": "ING1", "how_it_was_run": "as §1"}, "SP140L": {"tested_on": "SP140L", "how_it_was_run": "as §1"}, "PHF13": {"tested_on": "PHF13", "how_it_was_run": "as §1"}, "BAZ2B": {"tested_on": "BAZ2B", "how_it_was_run": "as §1"}, "PHRF1 (RP)": {"tested_on": "PHRF1 (RP)", "how_it_was_run": "as §1"}, "KDM5B (1)": {"tested_on": "KDM5B (1)", "how_it_was_run": "as §1"}, "PHF23": {"tested_on": "PHF23", "how_it_was_run": "as §1"}, "ING5": {"tested_on": "ING5", "how_it_was_run": "as §1"}, "KDM4C (TTP)": {"tested_on": "KDM4C (TTP)", "how_it_was_run": "as §1"}, "TAF3": {"tested_on": "TAF3", "how_it_was_run": "as §1"}, "KDM5B (3)": {"tested_on": "KDM5B (3)", "how_it_was_run": "as §1"}, "[1]": {"conditions": "GST-tagged reader, histone peptide array, total n = 4"}}}
{"substance": "H3K9me2 + K27me1 (1-32): H3 1-20", "values": [{"measurement": "Array Heatmap signal, RAG2", "setting": "RAG2; GST-tagged RAG2, arrays performed twice, total replicate number n = 4", "value": 0.2412}, {"measurement": "Array Heatmap signal, CHD5 (PPCC)", "setting": "CHD5 (PPCC); GST-tagged CHD5 (PPCC), arrays performed twice, total replicate number n = 4", "value": 0.5173}, {"measurement": "Array Heatmap signal, CHD5 (PCC)", "setting": "CHD5 (PCC); GST-tagged CHD5 (PCC), arrays performed twice, total replicate number n = 4", "value": 0.7436}, {"measurement": "Array Heatmap signal, CHD4 (PPCC)", "setting": "CHD4 (PPCC); GST-tagged CHD4 (PPCC), arrays performed twice, total replicate number n = 4", "value": 0.5346}, {"measurement": "Array Heatmap signal, ING4", "setting": "ING4; GST-tagged ING4, arrays performed twice, total replicate number n = 4", "value": 0.4312}, {"measurement": "Array Heatmap signal, TRIM66 (PB)", "setting": "TRIM66 (PB); GST-tagged TRIM66 (PB), arrays performed twice, total replicate number n = 4", "value": 0.6366}, {"measurement": "Array Heatmap signal, ING2", "setting": "ING2; GST-tagged ING2, arrays performed twice, total replicate number n = 4", "value": 0.6071}, {"measurement": "Array Heatmap signal, DPF2 (PPC2W2)", "setting": "DPF2 (PPC2W2); GST-tagged DPF2 (PPC2W2), arrays performed twice, total replicate number n = 4", "value": 0.7331}, {"measurement": "Array Heatmap signal, DIDO1", "setting": "DIDO1; GST-tagged DIDO1, arrays performed twice, total replicate number n = 4", "value": 0.7123}, {"measurement": "Array Heatmap signal, PHF21A", "setting": "PHF21A; GST-tagged PHF21A, arrays performed twice, total replicate number n = 4", "value": 0.4343}, {"measurement": "Array Heatmap signal, AIRE (PP)", "setting": "AIRE (PP); GST-tagged AIRE (PP), arrays performed twice, total replicate number n = 4", "value": 0.4239}, {"measurement": "Array Heatmap signal, KDM7A", "setting": "KDM7A; GST-tagged KDM7A, arrays performed twice, total replicate number n = 4", "value": 0.3071}, {"measurement": "Array Heatmap signal, MLL5", "setting": "MLL5; GST-tagged MLL5, arrays performed twice, total replicate number n = 4", "value": 0.5528}, {"measurement": "Array Heatmap signal, PHF2", "setting": "PHF2; GST-tagged PHF2, arrays performed twice, total replicate number n = 4", "value": 0.587}, {"measurement": "Array Heatmap signal, BPTF (PB)", "setting": "BPTF (PB); GST-tagged BPTF (PB), arrays performed twice, total replicate number n = 4", "value": 0.3305}, {"measurement": "Array Heatmap signal, ING3", "setting": "ING3; GST-tagged ING3, arrays performed twice, total replicate number n = 4", "value": 0.4513}, {"measurement": "Array Heatmap signal, KDM5A (1)", "setting": "KDM5A (1); GST-tagged KDM5A (1), arrays performed twice, total replicate number n = 4", "value": 0.4383}, {"measurement": "Array Heatmap signal, PHF8", "setting": "PHF8; GST-tagged PHF8, arrays performed twice, total replicate number n = 4", "value": 0.3466}, {"measurement": "Array Heatmap signal, KDM5A (3)", "setting": "KDM5A (3); GST-tagged KDM5A (3), arrays performed twice, total replicate number n = 4", "value": 0.5076}, {"measurement": "Array Heatmap signal, MORC3 (CW)", "setting": "MORC3 (CW); GST-tagged MORC3 (CW), arrays performed twice, total replicate number n = 4", "value": 0.4746}, {"measurement": "Array Heatmap signal, ING1", "setting": "ING1; GST-tagged ING1, arrays performed twice, total replicate number n = 4", "value": 0.5289}, {"measurement": "Array Heatmap signal, SP140L", "setting": "SP140L; GST-tagged SP140L, arrays performed twice, total replicate number n = 4", "value": 0.3321}, {"measurement": "Array Heatmap signal, PHF13", "setting": "PHF13; GST-tagged PHF13, arrays performed twice, total replicate number n = 4", "value": 0.5951}, {"measurement": "Array Heatmap signal, BAZ2B", "setting": "BAZ2B; GST-tagged BAZ2B, arrays performed twice, total replicate number n = 4", "value": 0.4338}, {"measurement": "Array Heatmap signal, PHRF1 (RP)", "setting": "PHRF1 (RP); GST-tagged PHRF1 (RP), arrays performed twice, total replicate number n = 4", "value": 0.767}, {"measurement": "Array Heatmap signal, KDM5B (1)", "setting": "KDM5B (1); GST-tagged KDM5B (1), arrays performed twice, total replicate number n = 4", "value": 0.6244}, {"measurement": "Array Heatmap signal, PHF23", "setting": "PHF23; GST-tagged PHF23, arrays performed twice, total replicate number n = 4", "value": 0.5468}, {"measurement": "Array Heatmap signal, ING5", "setting": "ING5; GST-tagged ING5, arrays performed twice, total replicate number n = 4", "value": 0.3315}, {"measurement": "Array Heatmap signal, KDM4C (TTP)", "setting": "KDM4C (TTP); GST-tagged KDM4C (TTP), arrays performed twice, total replicate number n = 4", "value": 0.4309}, {"measurement": "Array Heatmap signal, TAF3", "setting": "TAF3; GST-tagged TAF3, arrays performed twice, total replicate number n = 4", "value": 0.256}, {"measurement": "Array Heatmap signal, KDM5B (3)", "setting": "KDM5B (3); GST-tagged KDM5B (3), arrays performed twice, total replicate number n = 4", "value": 0.4925}]}
{"substance": "H3K9me2 + K27me2: H3 6-30", "values": [{"measurement": "Array Heatmap signal, RAG2", "setting": "RAG2; [1]", "value": 0.2639}, {"measurement": "Array Heatmap signal, CHD5 (PPCC)", "setting": "CHD5 (PPCC); [1]", "value": 0.6064}, {"measurement": "Array Heatmap signal, CHD5 (PCC)", "setting": "CHD5 (PCC); [1]", "value": 0.8305}, {"measurement": "Array Heatmap signal, CHD4 (PPCC)", "setting": "CHD4 (PPCC); [1]", "value": 0.615}, {"measurement": "Array Heatmap signal, ING4", "setting": "ING4; [1]", "value": 0.4936}, {"measurement": "Array Heatmap signal, TRIM66 (PB)", "setting": "TRIM66 (PB); [1]", "value": 0.6036}, {"measurement": "Array Heatmap signal, ING2", "setting": "ING2; [1]", "value": 0.6067}, {"measurement": "Array Heatmap signal, DPF2 (PPC2W2)", "setting": "DPF2 (PPC2W2); [1]", "value": 0.6273}, {"measurement": "Array Heatmap signal, DIDO1", "setting": "DIDO1; [1]", "value": 0.6649}, {"measurement": "Array Heatmap signal, PHF21A", "setting": "PHF21A; [1]", "value": 0.4962}, {"measurement": "Array Heatmap signal, AIRE (PP)", "setting": "AIRE (PP); [1]", "value": 0.5158}, {"measurement": "Array Heatmap signal, KDM7A", "setting": "KDM7A; [1]", "value": 0.3867}, {"measurement": "Array Heatmap signal, MLL5", "setting": "MLL5; [1]", "value": 0.5274}, {"measurement": "Array Heatmap signal, PHF2", "setting": "PHF2; [1]", "value": 0.4856}, {"measurement": "Array Heatmap signal, BPTF (PB)", "setting": "BPTF (PB); [1]", "value": 0.3713}, {"measurement": "Array Heatmap signal, ING3", "setting": "ING3; [1]", "value": 0.521}, {"measurement": "Array Heatmap signal, KDM5A (1)", "setting": "KDM5A (1); [1]", "value": 0.5009}, {"measurement": "Array Heatmap signal, PHF8", "setting": "PHF8; [1]", "value": 0.3721}, {"measurement": "Array Heatmap signal, KDM5A (3)", "setting": "KDM5A (3); [1]", "value": 0.4645}, {"measurement": "Array Heatmap signal, MORC3 (CW)", "setting": "MORC3 (CW); [1]", "value": 0.385}, {"measurement": "Array Heatmap signal, ING1", "setting": "ING1; [1]", "value": 0.5223}, {"measurement": "Array Heatmap signal, SP140L", "setting": "SP140L; [1]", "value": 0.3642}, {"measurement": "Array Heatmap signal, PHF13", "setting": "PHF13; [1]", "value": 0.655}, {"measurement": "Array Heatmap signal, BAZ2B", "setting": "BAZ2B; [1]", "value": 0.4949}, {"measurement": "Array Heatmap signal, PHRF1 (RP)", "setting": "PHRF1 (RP); [1]", "value": 0.4454}, {"measurement": "Array Heatmap signal, KDM5B (1)", "setting": "KDM5B (1); [1]", "value": 0.6708}, {"measurement": "Array Heatmap signal, PHF23", "setting": "PHF23; [1]", "value": 0.5491}, {"measurement": "Array Heatmap signal, ING5", "setting": "ING5; [1]", "value": 0.3864}, {"measurement": "Array Heatmap signal, KDM4C (TTP)", "setting": "KDM4C (TTP); [1]", "value": 0.5461}, {"measurement": "Array Heatmap signal, TAF3", "setting": "TAF3; [1]", "value": 0.2757}, {"measurement": "Array Heatmap signal, KDM5B (3)", "setting": "KDM5B (3); [1]", "value": 0.4954}]}
